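Where inhibition never reached the appropriate level, the endpoint shown equals the highest concentration tested. Otherwise, values were interpolated linearly from a five-concentration, 48-hour dose response in 96-well plates. GI50 marks 50% less growth.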 Calls of active or inactive are those of the source. Rule as the data show it: active = GI50 up to about 1.1 µM and inactive = higher.
Experiments:
Assay in all cases: DTP human tumour cell line panel, 48 h
SF-268 = system: SF-268
A498 = system: A498
SR = system: SR
786-0 = system: 786-0
NCI-H226 = system: NCI-H226
COLO 205 = system: COLO 205
U-251 = system: U-251
SK-MEL-28 = system: SK-MEL-28
KM12 = system: KM12
RXF 393 = system: RXF 393
ACHN = system: ACHN
OVCAR-5 = system: OVCAR-5
SK-MEL-5 = system: SK-MEL-5
LOX IMVI = system: LOX IMVI

Measured: GI50

CCOc1ccccc1NC(=O)C1=C(C)NC(C)=C(C(=O)Nc2ccccc2OCC)C1c1ccc([N+](=O)[O-])cc1
inactive: SF-268 > 100 µM | A498 78.9 µM | SR 47.6 µM | 786-0 > 100 µM | NCI-H226 21.4 µM | COLO 205 67.9 µM | U-251 > 100 µM | SK-MEL-28 > 100 µM | KM12 41 µM | RXF 393 > 100 µM | ACHN > 100 µM | OVCAR-5 > 100 µM

COc1c(OC(C)=O)ccc(/C=C2\N=C(C)OC2=O)c1[N+](=O)[O-]
inactive: SF-268 > 100 µM | A498 > 100 µM | SR > 100 µM | SK-MEL-5 > 100 µM | 786-0 > 100 µM | LOX IMVI > 100 µM | COLO 205 > 100 µM | U-251 > 100 µM | KM12 > 100 µM | RXF 393 > 100 µM | ACHN > 100 µM | OVCAR-5 > 100 µM

C[C@H](OCc1ccccc1)C(=O)N1CCS(=O)(=O)N2CCC[C@@H]2C1=O
inactive: SF-268 > 100 µM | A498 > 100 µM | SR > 100 µM | SK-MEL-5 > 100 µM | 786-0 > 100 µM | NCI-H226 > 100 µM | LOX IMVI > 100 µM | COLO 205 > 100 µM | U-251 > 100 µM | SK-MEL-28 > 100 µM | KM12 > 100 µM | RXF 393 > 100 µM | ACHN > 100 µM | OVCAR-5 > 100 µM

CCC(C(=O)O)c1ccc(OCc2ccccc2)cc1 (stereo not drawn)
inactive: SF-268 > 100 µM | A498 > 100 µM | SR > 100 µM | SK-MEL-5 > 100 µM | NCI-H226 > 100 µM | LOX IMVI > 100 µM | COLO 205 > 100 µM | U-251 > 100 µM | SK-MEL-28 > 100 µM | KM12 > 100 µM | RXF 393 > 100 µM | ACHN > 100 µM | OVCAR-5 > 100 µM

Cc1ccc(NC(=O)C(=O)CC(=O)c2c(C)[n+]([O-])c3ccccc3[n+]2[O-])cc1C
inactive: SF-268 > 100 µM | A498 > 100 µM | SR 33.5 µM | SK-MEL-5 > 100 µM | 786-0 > 100 µM | NCI-H226 > 100 µM | LOX IMVI > 100 µM | COLO 205 43.7 µM | U-251 > 100 µM | SK-MEL-28 > 100 µM | KM12 > 100 µM | RXF 393 44.7 µM | ACHN > 100 µM | OVCAR-5 > 100 µM

c1ccc(C2OCCO2)c(OCCOc2cc(OCCOc3ccccc3C3OCCO3)c(OCCOc3ccccc3C3OCCO3)cc2OCCOc2ccccc2C2OCCO2)c1
inactive: SF-268 15.3 µM | A498 15.8 µM | SR > 100 µM | SK-MEL-5 26.1 µM | 786-0 4.67 µM | NCI-H226 13 µM | LOX IMVI 49.4 µM | COLO 205 > 100 µM | U-251 10.3 µM | SK-MEL-28 > 100 µM | KM12 91.8 µM | RXF 393 5.35 µM | ACHN 24.7 µM | OVCAR-5 > 100 µM

CCN(CC)CCNC(=O)c1ccc([N+](=O)[O-])cc1OC
inactive: SF-268 > 100 µM | A498 > 100 µM | SR > 100 µM | SK-MEL-5 > 100 µM | 786-0 > 100 µM | NCI-H226 > 100 µM | LOX IMVI > 100 µM | COLO 205 > 100 µM | U-251 > 100 µM | SK-MEL-28 > 100 µM | KM12 > 100 µM | RXF 393 > 100 µM | ACHN > 100 µM | OVCAR-5 > 100 µM

Reference: ChEMBL document CHEMBL1201862, “PubChem BioAssay data set” (2004)
